Data as given in patent US9028856B2, “Synergistic pesticide compositions” (priority 2008, dated 2015).

Tests used:
[1] = tested on: Argentine ant, Linepithema humile; test: Knockdown/mortality of ant workers under continuous exposure on treated glazed tile; conditions: Table 41, aqueous permethrin/adjuvant, glazed tile
In short: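 0.5% AI imidacloprid in acetone, alone or with 0.1, 1.0 or 5.0% additive (benzenepropanoic acid, oleic acid, methyl oleate, methyl linoleate, methyl palmitate or BHA), 1 ml dried overnight on glazed tile (~161 cm^2). Ten workers confined under continuous exposure, water from 3 h; knockdown/mortality scored at intervals and 24 h; ≥3 replicates.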

Aedes aegypti mosquito = test: USDA Petri Dish Method, 3 min exposure to dipped fiberglass window screen; format: in vivo; conditions: dipped screen, 3 min exposure
Procedure: MATERIALS AND METHODS: Aqueous solutions of 1% deltamethrin with and without an adjuvant composition, which is sold under the tradename Suspend® SC. […] Pre-cut fiberglass screen (5″×5″, or 161.3 cm^2) were dipped in each treatment solution and excessive solution was allowed to drain completely (see FIG. 23 a). Weight of the solution coated on the screen was then determined. The treated screen was then allowed to air-dry overnight. USDA Petri Dish Method was used as initial screening protocol (see FIG. 23 b). Twenty, 4-6 day old female Aedes aegypti were exposed to treated window screen for 3 minutes and then moved onto a clean untreated white paper index card. Treatments were replicated a minimum of three times. Mosquito knockdown was evaluated at 3 minute intervals for the first 15 minutes and then at 5 minute intervals for the remainder of an hour. A small cotton ball with sucrose solution was added on the screen top of the Petri dish as a drinking source. Mortality was evaluated at 24 hours after exposure.
MATERIALS AND METHODS: Several rates of permethrin without adjuvant were prepared using product sold under the tradename Permanone® 40 to determine an effective rate against Aedes aegypti mosquitoes. After determining an effective rate range, aqueous solutions of permethrin at 1.25, 1.0 and 0.05% AI were prepared with and without adjuvant. […] Pre-cut fiberglass screens (5″×5″ or 161.3 cm^2) were dipped in each treatment solution allowing excessive solution to drain completely. Weight of the solution coated on the screen was then determined. The treated screen was then allowed to air-dry overnight. USDA Petri Dish Method was used as initial screening protocol (see photo, right). Twenty, 4-6 day old female Aedes aegypti were exposed to treated window screen for 3 minutes and then moved to a clean untreated white paper index card. Treatments were replicated a minimum of three times. Mosquito knockdown was evaluated at 3 minute intervals for the first 15 minutes and then at 5 minute intervals for the remainder of an hour. A small cotton ball with sucrose solution was added on the screen top of the petri-dish as a drinking source. Mortality was evaluated at 24 hours after exposure.

[2] = tested on: bait averse/resistant German cockroach (IHOP strain), Blattella germanica; test: Knockdown/mortality of male cockroaches under continuous exposure on treated glazed tile; format: in vivo; conditions: Table 42, aqueous permethrin/adjuvant, IHOP strain
Procedure: Treatments were allowed to dry overnight. […] Treatments were replicated a minimum of three times. Evaluations for cockroach knockdown/mortality were made at various intervals for 1 hour and at 24 hours after exposure.
Treatments were allowed to dry overnight. […] Evaluations for cockroach knockdown/mortality were made at various intervals and at 60 minutes after exposure.
(§1) Treatments were allowed to dry overnight. […] Treatments were replicated a minimum of three times.

[3] = tested on: Odorous House ant, Tapinoma sessile; test: Knockdown/mortality of ant workers under continuous exposure on treated glazed tile; format: in vivo; conditions: Table 43, aqueous permethrin/adjuvant, glazed tile
In short: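 Treatments applied to about 161 cm2 glazed tile and dried overnight, with at least three replicates.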

[4] = tested on: Red Imported Fire ant (RIFA), Solenopsis invicta; test: as above; format: in vivo; conditions: Table 44, aqueous permethrin/adjuvant, glazed tile
Source text: Treatments were allowed to dry overnight. […] Treatments were replicated minimum three times.
as §1

[5] = tested on: susceptible/normal German cockroach (Monheim strain), Blattella germanica; test: Knockdown/mortality of male cockroaches under continuous exposure on treated glazed tile; format: in vivo; conditions: Table 45, aqueous permethrin/adjuvant, glazed tile, Monheim strain
In short: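 Male cockroaches continuously exposed on treated glazed tile, dried overnight before exposure; at least three replicates. Knockdown/mortality scored at intervals from 5 or 10 min, over runs lasting 20 min to 24 h depending on test.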

[6] = tested on: Musca domestica, resistant strain Reichswald; test: Efficacy of formulations on surfaces (glazed/unglazed tiles), house flies, continuous exposure; format: in vivo; conditions: strain RW resistant, acetone solutions on glazed tiles, mean of three replicates
Procedure: All surfaces were provided with talcum-coated glass rings (diameter 9.5 cm, height 5.5 cm) one day later.
The test insects were anesthetized with CO2, 20 individuals were placed onto the treated surfaces and the glass ring was covered with wire gauze ring. […]
Each test consisted of at least one replicate and any additional replicates are noted.
Test Insects: House flies (Musca domestica) of both sexes, susceptible strain WHO(N) and resistant strain Reichswald
Evaluation: Mortality was evaluated cumulatively at different times. […]
Test Insects: Culex quinquefasciatus (adults) (3 minutes exposure time according to USDA Petri Dish Method), Musca domestica (adults), susceptible and resistant strain, Blattella germanica (males), Cimex lectularius (adults) (all: continuous exposure time)
Application: The EC formulation (diluted with water 1:9) were applied as 0.85 ml solutions onto glazed tiles (15 cm×15 cm)

[7] = tested on: Musca domestica, resistant strain Reichswald; test: as above; format: in vivo; conditions: strain RW resistant, acetone solutions on glazed tiles, mean of three replicates; remark: listed apart in the source
[8] = Table 39, permethrin without adjuvant (Permanone 40)
[9] = Table 40, aqueous permethrin/adjuvant

CC1(C)C(C=C(Cl)Cl)C1C(=O)OCc1cccc(Oc2ccccc2)c1 (centres unmarked) [Permethrin (0.5%)]
Average % Mortality after 5 min ([1]; 5 min): 58% | Average % Mortality after 10 min ([1]; 10 min): 100% | Average % Mortality after 15 min ([1]; 15 min): 100% | Average % Mortality after 20 min ([1]; 20 min): 100% | Average % Knockdown & Mortality after 3 min (Aedes aegypti mosquito; [8]): 0% | Average % Knockdown & Mortality after 3 min (Aedes aegypti mosquito; [9]): 0% | Average % Knockdown & Mortality after 9 min (Aedes aegypti mosquito; [8]): 0% | Average % Knockdown & Mortality after 9 min (Aedes aegypti mosquito; [9]): 1% | Average % Knockdown & Mortality after 15 min (Aedes aegypti mosquito; [8]): 0% | Average % Knockdown & Mortality after 15 min (Aedes aegypti mosquito; [9]): 1% | Average % Knockdown & Mortality after 30 min (Aedes aegypti mosquito; [8]): 0% | Average % Knockdown & Mortality after 30 min (Aedes aegypti mosquito; [9]): 0% | Average % Knockdown & Mortality after 60 min (Aedes aegypti mosquito; [8]): 0% | Average % Knockdown & Mortality after 60 min (Aedes aegypti mosquito; [9]): 0% | Average % Knockdown & Mortality after 24 hr (Aedes aegypti mosquito; [8]): 9% | Average % Knockdown & Mortality after 24 hr (Aedes aegypti mosquito; [9]): 6% | Average % Mortality after 10 min ([2]; 10 min): 40% | Average % Mortality after 20 min ([2]; 20 min): 87% | Average % Mortality after 40 min ([2]; 40 min): 93% | Average % Mortality after 60 min ([2]; 60 min): 100% | Average % Mortality after 10 min ([3]; 10 min): 13% | Average % Mortality after 20 min ([3]; 20 min): 50% | Average % Mortality after 30 min ([3]; 30 min): 93% | Average % Mortality after 60 min ([3]; 60 min): 100% | Average % Mortality after 5 min ([4]; 5 min): 43% | Average % Mortality after 15 min ([4]; 15 min): 100% | Average % Mortality after 30 min ([4]; 30 min): 100% | Average % Mortality after 60 min ([4]; 60 min): 100% | Average % Mortality after 10 min ([5]; 10 min): 100% | Average % Mortality after 20 min ([5]; 20 min): 100% | Average % Mortality after 30 min ([5]; 30 min): 100% | Average % Mortality after 4 hr ([5]; 4 hr): 100%

CC1(C)[C@H](C(=O)O[C@H](C#N)c2cccc(Oc3ccccc3)c2)[C@@H]1C=C(Br)Br [0.020% DTM]
% Mortality after ([6]; 15′): 0% | % Mortality after ([6]; 30′): 0% | % Mortality after ([6]; 1 h): 0% | % Mortality after ([6]; 3 h): 0% | % Mortality after ([7]; 2 h): 0% | % Mortality after ([7]; 24 h): 7%
